Read-outs that look alike come from different tables or passages of the source.
Test system: HSV-2
Assay: Plaque reduction assay, HSV-2 clinical isolates on Vero cells
Assay type: cell-based
Conditions: for IC50: Human alphaherpesvirus 2, Vero
Description: Viral isolates were used to infect a sub-confluent monolayer of Vero cells at a concentration of 75 or 50 plaque forming units (PFU) per well for HSV-1 and HSV-2, respectively. […] CMC medium typically used to create a semisolid interface and prevents indiscrimate viral spreading. Other materials (e.g. agar) may also be used to create this interface.
Cells were fixed with 10% formalin and stained with crystal violet before enumeration of the plaques (microscopic observation or use of fluorescent antibodies for detection is also suitable). The data obtained from these experiments were then expressed as percent inhibition of viral infectivity relative to the no drug control.
Definitions of phenotypic drug susceptibility classification as sensitive or resistant were as follows: ACV, <3 μM or >40 μM; PCV, <10 μM or >40 μM; CDV, <24 μM or >30 μM; FOS, <250 μM or >400 μM; and ACV, <6.5 μM or >40 μM; PCV, <38 μM or >40 μM; FOS, <250 μM or >400 μM for HSV-1 and HSV-2, respectively. Any IC50 values falling in between these sensitive and resistant cut-offs were reported as intermediate resistance.
The phenotype (i.e. reactivity to a drug) of the virus was characterised by the plaque reduction assay as described above. The present inventors have characterised the resistance-causing phenotype of a large number of TK and DNA pol mutations.

For `Nc1nc2c(ncn2COCCO)c(=O)[nH]1` [Aciclovir, acyclovir], the Level of resistance (HSV-2 DNA pol R628G (18820>G)) was “weak/intermediate resistance”, the IC50 (isolate HPG001, HSV-2 TK A125T (373G>A), read-out: Drug susceptibility (IC50 value)) was 1.53 µM and the IC50 (isolate HPG001, HSV-2 pol H714R (2141A>G), read-out: Drug susceptibility (IC50 value)) was 1.53 µM. The IC50 (isolate HPG004, HSV-2 pol M494T (1481T>C), also pol S729N, read-out: Drug susceptibility (IC50 value)) was > 40 µM, the IC50 (isolate HPG007, HSV-2 pol R628G (1882C>G), read-out: Drug susceptibility (IC50 value)) was 28.6 µM and the IC50 (isolate HPG017, HSV-2 TK Q186H (558G>T), read-out: Drug susceptibility (IC50 value)) was 10.2 µM. The IC50 (isolate HPG022, HSV-2 TK E213D (639A>C), read-out: Drug susceptibility (IC50 value)) was 4.46 µM, the IC50 (isolate HPG022, HSV-2 pol D174Y (520G>T), read-out: Drug susceptibility (IC50 value)) was 4.46 µM and the IC50 (isolate HPG023, HSV-2 TK Q186H (558G>T), read-out: Drug susceptibility (IC50 value)) was 12.1 µM. The IC50 (isolate HPG024, HSV-2 TK E213D (639A>C), read-out: Drug susceptibility (IC50 value)) was 2.5 µM, the IC50 (isolate HPG028, HSV-2 TK 98stop or A94fs (276delG, 278delG, 279delG, or 280delG), read-out: Drug susceptibility (IC50 value)) was > 40 µM and the IC50 (isolate HPG028, HSV-2 pol E776Q (2326G>C), also TK deletion (G) nt 276-280, read-out: Drug susceptibility (IC50 value)) was > 40 µM. For the same molecule, the IC50 (isolate HPG028, HSV-2 pol R775C, R775W (2323C>T; 2325C>G), also TK deletion (G) nt 276-280, read-out: Drug susceptibility (IC50 value)) was > 40 µM, the IC50 (isolate HPG030, HSV-2 TK Q90stop (268C>T), read-out: Drug susceptibility (IC50 value)) was > 40 µM and the IC50 (isolate HPG030, HSV-2 pol E761K (2281G>A), also TK Q90stop, read-out: Drug susceptibility (IC50 value)) was > 40 µM. The IC50 (isolate HPG036, HSV-2 TK E84K (250G>A), read-out: Drug susceptibility (IC50 value)) was > 40 µM, the IC50 (isolate HPG038, HSV-2 TK R34C (100C>T), read-out: Drug susceptibility (IC50 value)) was 2.04 µM and the IC50 (isolate HPG044, HSV-2 TK M86L (256A>C), read-out: Drug susceptibility (IC50 value)) was > 40 µM. The IC50 (isolate HPG048, HSV-2 TK Q90stop (268C>T), read-out: Drug susceptibility (IC50 value)) was > 40 µM, the IC50 (isolate HPG048, HSV-2 pol E761K (2281G>A), also TK Q90stop, read-out: Drug susceptibility (IC50 value)) was > 40 µM and the IC50 (isolate HPG057, HSV-2 TK 98stop or A94fs (276delG, 278delG, 279delG, or 280delG), read-out: Drug susceptibility (IC50 value)) was > 40 µM. For the same molecule, the IC50 (isolate HPG058, HSV-2 TK 183stop or P154fs (458delC, 459delC, 460delC, or 461delC), read-out: Drug susceptibility (IC50 value)) was 36.2 µM, the IC50 (read-out: Drug susceptibility (IC50 value), isolate HPG034, HSV-2 TK L313S (938A>C)) was 35.8 µM and the IC50 (read-out: Drug susceptibility (IC50 value), isolate HPG056, HSV-2 pol M447L (1339A>C)) was 1.56 µM. For the same molecule, the IC50 (read-out: Drug susceptibility Aciclovir (ACV), isolate HPG001, HSV-2 TK A125T (373G>A)) was < 6.5 µM, the IC50 (read-out: Drug susceptibility Aciclovir (ACV), isolate HPG001, HSV-2 pol H714R (2141A>G)) was < 6.5 µM and the IC50 (read-out: Drug susceptibility Aciclovir (ACV), isolate HPG004, HSV-2 pol M494T (1481T>C), also pol S729N) was > 40 µM. The IC50 (read-out: Drug susceptibility Aciclovir (ACV), isolate HPG007, HSV-2 pol R628G (1882C>G)) was 6.5 to 40 µM, the IC50 (read-out: Drug susceptibility Aciclovir (ACV), isolate HPG017, HSV-2 TK Q186H (558G>T)) was 6.5 to 40 µM and the IC50 (read-out: Drug susceptibility Aciclovir (ACV), isolate HPG022, HSV-2 TK E213D (639A>C)) was < 6.5 µM. For the same molecule, the IC50 (read-out: Drug susceptibility Aciclovir (ACV), isolate HPG022, HSV-2 pol D174Y (520G>T)) was < 6.5 µM, the IC50 (read-out: Drug susceptibility Aciclovir (ACV), isolate HPG023, HSV-2 TK Q186H (558G>T)) was 6.5 to 40 µM and the IC50 (read-out: Drug susceptibility Aciclovir (ACV), isolate HPG024, HSV-2 TK E213D (639A>C)) was < 6.5 µM. The IC50 (read-out: Drug susceptibility Aciclovir (ACV), isolate HPG028, HSV-2 TK 98stop or A94fs (276delG, 278delG, 279delG, or 280delG)) was > 40 µM, the IC50 (read-out: Drug susceptibility Aciclovir (ACV), isolate HPG028, HSV-2 pol E776Q (2326G>C), also TK deletion (G) nt 276-280) was > 40 µM and the IC50 (read-out: Drug susceptibility Aciclovir (ACV), isolate HPG028, HSV-2 pol R775C, R775W (2323C>T; 2325C>G), also TK deletion (G) nt 276-280) was > 40 µM. For the same molecule, the IC50 (read-out: Drug susceptibility Aciclovir (ACV), isolate HPG030, HSV-2 TK Q90stop (268C>T)) was > 40 µM, the IC50 (read-out: Drug susceptibility Aciclovir (ACV), isolate HPG030, HSV-2 pol E761K (2281G>A), also TK Q90stop) was > 40 µM and the IC50 (read-out: Drug susceptibility Aciclovir (ACV), isolate HPG034, HSV-2 TK L313S (938A>C)) was 6.5 to 40 µM. For the same molecule, the IC50 (read-out: Drug susceptibility Aciclovir (ACV), isolate HPG036, HSV-2 TK E84K (250G>A)) was > 40 µM, the IC50 (read-out: Drug susceptibility Aciclovir (ACV), isolate HPG038, HSV-2 TK R34C (100C>T)) was < 6.5 µM and the IC50 (read-out: Drug susceptibility Aciclovir (ACV), isolate HPG044, HSV-2 TK M86L (256A>C)) was > 40 µM. For the same molecule, the IC50 (read-out: Drug susceptibility Aciclovir (ACV), isolate HPG048, HSV-2 TK Q90stop (268C>T)) was > 40 µM, the IC50 (read-out: Drug susceptibility Aciclovir (ACV), isolate HPG048, HSV-2 pol E761K (2281G>A), also TK Q90stop) was > 40 µM and the IC50 (read-out: Drug susceptibility Aciclovir (ACV), isolate HPG056, HSV-2 pol M447L (1339A>C)) was < 6.5 µM. The IC50 (read-out: Drug susceptibility Aciclovir (ACV), isolate HPG057, HSV-2 TK 98stop or A94fs (276delG, 278delG, 279delG, or 280delG)) was > 40 µM and the IC50 (read-out: Drug susceptibility Aciclovir (ACV), isolate HPG058, HSV-2 TK 183stop or P154fs (458delC, 459delC, 460delC, or 461delC)) was 6.5 to 40 µM.
